The values below come from patent US20250346581A1, “PROCESS FOR SYNTHESIS OF GALBULIMIMA ALKALOID 18 AND COMPOUNDS USEFUL AS OPIOID RECEPTOR ANTAGONISTS AND AGONISTS” (The Scripps Research Institute, priority 2022, published 2025).

The target of assay [1] is T1, KOR (Homo sapiens, UniProt P41145). Put plainly: KOR cAMP inhibition screening, antagonist mode vs. 100 nM U69,593. The note with it: Antagonist vs. 100 nM U69,593 IC50 (nM).
Assay [2] addresses T1, KOR. The assay can be described thus: KOR cAMP inhibition screening, agonist mode.
The target of assay [3] is T2, kappa-opioid receptors (KOR) (Homo sapiens, UniProt P41145).
T2 construct: NIMH Psychoactive Drug Screening Program (screening service)
T2 sequence (P41145 whole entry): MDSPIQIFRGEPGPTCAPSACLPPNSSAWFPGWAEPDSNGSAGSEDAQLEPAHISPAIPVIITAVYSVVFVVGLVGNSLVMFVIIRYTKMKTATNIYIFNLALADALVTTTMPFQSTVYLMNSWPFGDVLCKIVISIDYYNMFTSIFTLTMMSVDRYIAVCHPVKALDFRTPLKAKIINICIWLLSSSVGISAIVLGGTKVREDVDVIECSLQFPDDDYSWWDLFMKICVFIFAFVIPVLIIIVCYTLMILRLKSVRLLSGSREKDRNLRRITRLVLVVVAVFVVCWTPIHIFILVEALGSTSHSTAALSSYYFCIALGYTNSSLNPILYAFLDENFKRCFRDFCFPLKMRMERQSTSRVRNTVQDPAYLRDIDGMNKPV
The assay can be described thus: NIMH PDSP radioligand displacement, [3H]U-69593. It is filed as binding. The note with it: for displacement of [3H]U-69593 from KOR: 10 μM.

The target in assay [4] is T1, KOR. The assay can be described thus: TANGO assay KOR. Type of assay: cell-based.
In a further assay the test system is >40 common drug targets. The assay can be described thus: NIMH PDSP binding screen of common drug targets. The note with it: 10 μM.
The target of assay [5] is T3, mu-opioid receptors (MOR) (Homo sapiens, UniProt P35372).
T3 construct: NIMH Psychoactive Drug Screening Program (screening service)
T3 sequence (P35372 whole entry): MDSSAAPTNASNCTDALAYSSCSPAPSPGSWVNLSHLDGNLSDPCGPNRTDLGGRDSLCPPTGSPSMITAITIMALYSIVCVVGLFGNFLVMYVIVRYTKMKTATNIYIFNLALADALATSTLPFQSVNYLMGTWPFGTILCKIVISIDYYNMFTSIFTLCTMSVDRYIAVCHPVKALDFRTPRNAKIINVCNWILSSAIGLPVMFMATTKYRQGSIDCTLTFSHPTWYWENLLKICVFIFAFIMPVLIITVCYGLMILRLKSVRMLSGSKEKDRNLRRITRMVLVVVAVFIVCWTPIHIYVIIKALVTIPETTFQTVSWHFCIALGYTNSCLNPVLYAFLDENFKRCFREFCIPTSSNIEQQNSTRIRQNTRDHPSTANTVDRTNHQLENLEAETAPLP
The assay can be described thus: NIMH PDSP radioligand displacement, [3H]DAMGO. Type of assay: binding. The note with it: 10 μM. For orientation: Displacement assays read how much labelled ligand stays bound in the presence of the test substance.

Another assay concerns Mas-related GPCRs. Put plainly: Follow-up assay Mas-related GPCRs. It is filed as cell-based.
The target in the next assay is MOR (Homo sapiens, UniProt P35372). Put plainly: TANGO assay MOR. Type of assay: cell-based.
Chain of MOR (P35372 whole entry): as above
The target of assay [6] is nociceptin opioid receptors (Homo sapiens, UniProt P41146). Put plainly: Follow-up assay nociceptin opioid receptor. Type of assay: cell-based.
Chain of nociceptin opioid receptors (P41146 whole entry): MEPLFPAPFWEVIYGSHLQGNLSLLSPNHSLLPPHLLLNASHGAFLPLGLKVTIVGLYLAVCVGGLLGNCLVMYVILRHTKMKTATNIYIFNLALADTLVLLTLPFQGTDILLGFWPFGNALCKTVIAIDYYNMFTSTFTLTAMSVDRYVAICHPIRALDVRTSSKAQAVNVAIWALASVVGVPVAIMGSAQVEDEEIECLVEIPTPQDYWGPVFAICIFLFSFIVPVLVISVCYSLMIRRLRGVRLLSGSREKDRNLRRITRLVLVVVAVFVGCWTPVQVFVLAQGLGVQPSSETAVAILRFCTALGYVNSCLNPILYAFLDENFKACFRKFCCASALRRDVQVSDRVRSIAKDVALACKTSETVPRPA
Another assay deals with delta-opioid receptors (Homo sapiens, UniProt P41143). Put plainly: Follow-up assay delta-opioid receptor. Type of assay: cell-based.
Chain of delta-opioid receptors (P41143 whole entry): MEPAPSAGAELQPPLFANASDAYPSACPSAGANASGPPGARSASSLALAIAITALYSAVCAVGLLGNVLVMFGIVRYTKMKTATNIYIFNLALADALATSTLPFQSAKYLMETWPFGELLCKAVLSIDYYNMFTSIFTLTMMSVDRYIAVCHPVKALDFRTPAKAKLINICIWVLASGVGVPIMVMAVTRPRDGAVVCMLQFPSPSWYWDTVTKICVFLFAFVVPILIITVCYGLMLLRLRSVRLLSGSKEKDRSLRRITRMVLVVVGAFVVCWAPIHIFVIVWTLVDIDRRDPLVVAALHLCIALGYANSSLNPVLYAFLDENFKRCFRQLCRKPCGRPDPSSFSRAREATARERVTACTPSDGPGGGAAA
Assay [7] concerns mouse. The note with it: 5 mg/kg; cited from earlier work.
The subject of assay [8] is mouse. The note with it: 5 mg/kg; cited from earlier work. The source holds these as a separate data set.
For a further assay, the system named is M1-5. Put plainly: Muscarinic receptor binding (FIG. 3). An excerpt: Thus, the topology changes that differentiate the two subclasses also differentiate target selectivity.
In a further assay the test system is cats. The note with it: 2.5 mg/kg, i.v. administration; cited from earlier work.
For another assay, the system named is rabbit intestine. The note with it: 0.1 mg/L, furmethide-induced spasm; cited from earlier work.
Assay [9] addresses T1, KOR.
The subject of assay [10] is mammals. The note with it: cited from earlier work.
The test system of assay [11] is mammals. The note with it: in vivo; cited from earlier work.
Setting [12] is: read-out: Agonist Emax (% U69,593).
Where [13] appears, read: read-out: Agonist Emax (% U69,593), KOR cAMP, agonist mode.

Entries after “also recorded” stand apart in the source; their conditions may differ. Like-named read-outs stand apart in the source and are kept apart here. Marks after values point to notes of the source that are not given here. Where only a bound is given, the exact number is not on record here.

T1 sequence (P41145 whole entry): as the sequence (P41145 whole entry) above

In general, IC50 refers to the concentration at which inhibition is half-maximal. On to `CC1CCCC(C2CC3C4CCCCC45C=C(I)C4C2(C)OC345)N1C` (stereo not drawn), for which the midpoint of inhibition at KOR [1], the IC50, lay at 830 nM. As usually defined, the Emax is the maximal effect, on the per cent scale that the assay sets. The compound `C#CCOC(=O)C1=CC23CCCCC2C2CC(C4CCCC(C)N4)C4(C)OC23C14` (stereo not drawn) came in with a 50% inhibitory concentration (IC50) against KOR [1] of 556 nM. Moreover, the maximum response (Emax) at KOR [2] (setting [12]) is 5%. In turn, `CCOC(=O)C1=CC23CCCCC2C2CC(C4CCCC(C)N4C)C4(C)OC23C14` (stereo not drawn) yielded an IC50 against KOR [1] of 3390 nM. Further, the maximal effect (Emax) on KOR [2] (setting [12]) worked out at 15%. For `CC1CCCC(C2CC3C4CCCCC45C=C(C#N)C4C2(C)OC345)N1C` (stereo not drawn), on KOR [2] (setting [13]), the Emax worked out at 8%. `CC1CCCC([C@H]2C[C@H]3C4CCCCC45C=C(I)[C@H]4C2(C)OC345)N1C` (stereo partly drawn) yielded an IC50 against KOR [1] of 1400 nM. As to `C=CCN1C(C)CCCC1C1CC2C3CCCCC34C=C(C(=O)OC)C3C1(C)OC234` (stereo not drawn), the Emax at KOR [2] (setting [13]) was 2%. Compound `COC(=O)C1=CC23CCCCC2C2CC(C4CCCC(C)N4C(C)=O)C4(C)OC23C14` (stereo not drawn) gave an IC50 at KOR [1] greater than 10000 nM. In addition, the maximal response (Emax) at KOR [2] (setting [12]) stood at 10%. As to `CC1CCCC(C2CC3C4CCCCC45C=C(CO)C4C2(C)OC345)N1C` (stereo not drawn), the IC50 against KOR [1] was 116 nM. Further, the Emax on KOR [2] (setting [12]) is 12%.

As for `COCC1=CC23CCCCC2C2CC(C4CCCC(C)N4C)C4(C)OC23C14` (stereo not drawn), half-maximal inhibition on KOR [1] (IC50) was put at 3220 nM. Moreover, the maximal effect (Emax) on KOR [2] (setting [12]) was 14%. As for `CC(=O)C1=CC23CCCCC2C2CC(C4CCCC(C)N4C)C4(C)OC23C14` (stereo not drawn), on KOR [2] (setting [13]), the Emax was 12%. Take `COCC(=O)C1=CC23CCCCC2C2CC(C4CCCC(C)N4C)C4(C)OC23C14` (stereo not drawn): the Emax at KOR [2] (setting [13]) came out at 10%. `CC1CCCC(C2CC3C4CCCCC45C=C(C4=NCCO4)C4C2(C)OC345)N1C` (stereo not drawn): the Emax on KOR [2] (setting [13]) came out at 4%. On to `COC1CC23CCCCC2C2CC(c4cccc(C)n4)C4(C)OC23C14` (stereo not drawn), for which the Emax at KOR [2] (setting [13]) was 5%.

A word on the EC50: it is the concentration that produces a half-maximal response. Consider `COC(=O)C1=CC23CCCCC2[C@@H]2C[C@H](c4cccc(C)c4)C4(C)OC23[C@@H]14` (stereo partly drawn), for which, at KOR [2], the “Agonist Emax (% U69,593)” value is 60* % U69,593 and it took 1050 nM to reach a half-maximal effect (EC50).

Compound `COC(=O)C1=CC23CCCCC2[C@@H]2C[C@H](c4cccnc4)C4(C)OC23[C@@H]14` (stereo partly drawn) returned an IC50 against KOR [1] greater than 10000 nM. In addition, the maximum response (Emax) on KOR [2] (setting [12]) was 19%. A word on the Ki: it is the equilibrium dissociation constant of an inhibitor or competing ligand from its target. On to `COC(=O)C1=CC23CCCCC2[C@H]2C[C@@H](C4CCCC(C)N4)C(C)(O3)[C@@H]12` (single isomer, unassigned) [ent-GB18], for which the “displacement of [3H]U-69593 from KOR” value in assay [3] stood at 56%. The same compound registered a Ki in [3] ([3H]U-69593 displacement) of 1100 nM. Consider `COC(=O)C1=CC23CCCCC2[C@@H]2C[C@H](C4CCCC(C)N4)C(C)(O3)[C@H]12` (single isomer, unassigned) [nat-GB18], for which the IC50 against KOR [4] (TANGO, antagonist) was determined as 10 nM; against MOR (TANGO, antagonist) it was 12 nM. In addition, the “binding to >40 common drug targets” value in the assay on >40 common drug targets is recorded as “low or statistically-insignificant”. Besides, the “displacement of [3H]DAMGO from MOR” value in assay [5] was found to be 85%. For the same compound, the “ligation of Mas-related GPCRs” value in the assay on Mas-related GPCRs is recorded as “not strongly ligated”. For the same compound, the “displacement of [3H]U-69593 from KOR” value in [3] worked out at 87%. The “ligation of nociceptin opioid receptors” value in assay [6] was “not strongly ligated”. In addition, the “ligation of delta-opioid receptors” value on delta-opioid receptors is on record as “not strongly ligated”. For `COC(=O)C1=C[C@@]23CCCC[C@H]2[C@@H]2C[C@H]([C@H]4CCC[C@@H](C)N4)C(C)(O3)[C@H]12` [GB18, methyl (2R,3aS,5aR,9aS,9bS)-3-methyl-2-((2R,6R)-6-methylpiperidin-2-yl)-1,2,3,3a,6,7,8,9,9a,9b-decahydro-3,5a-epoxycyclopenta[a]naphthalene-4-carboxylate], on KOR [4] (FIG. 3), the “antagonism of KOR” value is “high potency”. Moreover, in the assay on mouse [7], the “inhibition of mouse preening” value is recorded as “inhibition of preening; also recorded: inhibited mouse preening”. Besides, in the assay with mouse [8], the “effect on pain threshold” value is on record as “without effect; also recorded: no effect”. The “binding to M1-5” value in the assay with M1-5 is listed as “does not bind”. Besides, the “antagonism of MOR” value at MOR (FIG. 3) is recorded as “high potency”. As for `COC(=O)C1=C2C3(O)CC4CC5C3CCC(C)N5C24C2CCCC(OC)C2C1OC(=O)c1ccccc1` (stereo not drawn) [Himandrine], in the assay on cats, the heart rate entry is reported as “reduced heart rate”; the hypotension result was “marked and sustained hypotension”. In the case of `C[C@@H]1CC[C@H]2[C@H](C[C@@H]3C[C@@]2(O)C2=CC(=O)[C@H]4CCCC[C@@H]4[C@H]23)N1C` [Himbadine], the antispasmodic activity entry in the assay on rabbit intestine is on record as “significant antispasmodic activity”.

Regarding `COC(=O)C1CC23CCCCC2C2CC(C4CCCC(C)N4)C4(C)OC23C14` (stereo not drawn) [drawing 153], the 50% inhibitory concentration (IC50) at KOR [1] worked out at 5000 nM. The Emax at KOR [2] (setting [13]) stood at 13%. Regarding `COC(=O)C1CC23CCCCC2C2CC(C4CCCC(C)N4)C4(C)OC23C14` (stereo not drawn) [drawing 154], the half-inhibitory concentration (IC50) against KOR [1] was greater than 10000 nM. For the same compound, at KOR [9], the “Agonist Emax (% U69,593)” value is on record as 10* % U69,593. For the compound `COC1CC23CCCCC2C2CC(C4CCCC(C)N4)C4(C)OC23C14` (stereo not drawn) [drawing 167], half-maximal inhibition on KOR [1] (IC50) required 6250 nM. In addition, the “Agonist Emax (% U69,593)” value on KOR [2] is recorded as 10* % U69,593. Regarding `COC1CC23CCCCC2C2CC(C4CCCC(C)N4)C4(C)OC23C14` (stereo not drawn) [drawing 168], at KOR [2] (setting [12]), the Emax turned out to be 17%. Turning to `COC(=O)C1=C2C3(O)CC4CC5C3CCC(C)N5C24C2CCC(O)C(OC)C2C1OC(=O)c1ccccc1` (stereo not drawn) [himandridine], the hypotensive activity entry in the assay on mammals [10] (2.5 mg/kg) is recorded as “moderate to marked hypotensive activity”. For `CC1CCCC(C=CC2C3CCCCC3CC3C(=O)OC(C)C32)N1` (stereo not drawn) [himbeline], the “depressant and hypotensive activity” value with mammals [10] (no dose listed) was “weakly depressant and hypotensive”. As to himandravine, in the assay on mammals [11], the CNS depression result is recorded as “strong CNS depression” and the “anticonvulsant activity against electroshock seizure” value is listed as “anticonvulsant activity”.
